Measurements: paper PMC10998594, “Structural and mechanistic basis of the central energy-converting methyltransferase complex of methanogenesis” (Proceedings of the National Academy of Sciences of the …, 2024)

Biological target: T1, MtrABCDEFG; Mtr(ABCDEFG)3; N5-methyl-tetrahydromethanopterin: coenzyme M methyltransferase core complex (Methanothermobacter marburgensis, UniProt P80183+P80185+P80186)
T1 construct: gene mtrE; native purification from M. marburgensis membranes (DDM/LMNG); trimer of MtrABCDEFG protomers, 430 kDa; MtrH not visible; soluble MtrA domain disordered, only MtrA 178-238 seen; printed lengths MtrB 100, MtrC 267, MtrD 233, MtrE 295, MtrF 68, MtrG 86; with Tetrahydromethanopterin S-methyltransferase subunit A; Tetrahydromethanopterin S-methyltransferase subunit B; Tetrahydromethanopterin S-methyltransferase subunit F; Tetrahydromethanopterin S-methyltransferase subunit G
T1 sequence (P80183 whole entry, looked up, the tested form may be a part): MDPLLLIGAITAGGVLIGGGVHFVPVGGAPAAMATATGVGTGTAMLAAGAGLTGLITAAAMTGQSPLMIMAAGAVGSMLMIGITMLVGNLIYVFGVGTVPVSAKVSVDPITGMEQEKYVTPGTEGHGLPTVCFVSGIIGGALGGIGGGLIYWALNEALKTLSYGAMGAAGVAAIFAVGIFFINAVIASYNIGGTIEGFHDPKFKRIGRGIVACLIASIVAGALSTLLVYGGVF
T1 sequence (P80185 whole entry, looked up, the tested form may be a part): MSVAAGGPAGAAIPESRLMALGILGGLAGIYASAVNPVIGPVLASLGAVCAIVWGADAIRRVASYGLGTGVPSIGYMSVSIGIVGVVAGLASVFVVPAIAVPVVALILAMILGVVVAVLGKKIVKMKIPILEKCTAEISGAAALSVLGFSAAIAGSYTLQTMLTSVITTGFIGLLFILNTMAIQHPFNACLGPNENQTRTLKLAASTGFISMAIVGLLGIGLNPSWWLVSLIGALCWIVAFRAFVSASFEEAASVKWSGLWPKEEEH
T1 sequence (P80186 whole entry, looked up, the tested form may be a part): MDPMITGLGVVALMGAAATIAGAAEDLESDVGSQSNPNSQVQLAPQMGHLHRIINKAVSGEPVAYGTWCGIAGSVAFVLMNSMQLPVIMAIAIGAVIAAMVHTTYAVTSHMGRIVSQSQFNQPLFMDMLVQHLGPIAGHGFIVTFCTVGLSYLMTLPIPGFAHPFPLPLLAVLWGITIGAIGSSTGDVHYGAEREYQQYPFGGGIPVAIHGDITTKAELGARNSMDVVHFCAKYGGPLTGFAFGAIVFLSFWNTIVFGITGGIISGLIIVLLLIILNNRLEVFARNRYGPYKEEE
Assay: cryo-EM structure, […] A
Assay type: binding
Details: 2 mM CoM, pH 7, 80 mM NaCl; site at wall of MtrCDE cavity (MtrE R113, N38; MtrC N188); two partially occupied conformations; putative assignment

O=S(=O)(O)CCS [CoM]
cryo-EM structure, 2.39 A: revealed the CoM binding site at the wall of the MtrCDE cavity
